# Data as given in DBAASP.
# Key:
# Test in all cases: ≥ marks a high value that may be exact or a test limit, other limits are often not marked, values filed in µg/mL are converted to µM
# [1] = tested on: Candida albicans ATCC 10231
# [2] = tested on: Cryptococcus neoformans ATCC 32264
# [3] = tested on: Mannheimia haemolytica 82-25
# [4] = tested on: Bifidobacterium longum subsp. infantis
# Escherichia coli = tested on: Escherichia coli
# Staphylococcus aureus = tested on: Staphylococcus aureus
# [5] = tested on: Acinetobacter baumannii ATCC 19606
# [6] = tested on: Bacillus subtilis NBRC 3009
# [7] = tested on: Escherichia coli NBRC 3972
# [8] = tested on: Staphylococcus aureus NBRC 13276
# Acinetobacter baumannii = tested on: Acinetobacter baumannii
# [9] = tested on: Aeromonas veronii X-1-06909
# [10] = tested on: Salmonella enterica subsp. enterica serovar Pullorum CVCC 1809
# [11] = tested on: Salmonella enterica subsp. enterica serovar Pullorum CVCC 1789
# [12] = tested on: Staphylococcus aureus ATCC 25923
# [13] = tested on: Salmonella enterica subsp. enterica serovar Enteritidis CVCC 3377
# [14] = tested on: Staphylococcus aureus ATCC 43300
# [15] = tested on: Escherichia coli CVCC 195
# [16] = tested on: Escherichia coli CVCC 25922
# [17] = tested on: Aeromonas veronii ATCC 35624
# [18] = tested on: Escherichia coli CVCC 1515
# [19] = tested on: Candida albicans CMCC 98001
# [20] = tested on: Staphylococcus aureus ATCC 546
# [21] = tested on: Salmonella enterica subsp. enterica serovar Typhimurium ATCC 14028
# [22] = tested on: Staphylococcus hyicus NCTC 10350
# [23] = tested on: Pseudomonas aeruginosa CICC 21630
# Staphylococcus hyicus = tested on: Staphylococcus hyicus
# [24] = tested on: Salmonella enterica subsp. enterica serovar Pullorum CVCC 533
# [25] = tested on: Escherichia coli CVCC O157
# Aeromonas veronii CL0901 = tested on: Aeromonas veronii CL0901
# [26] = tested on: Pseudomonas aeruginosa ATCC 27853
# [27] = tested on: Acinetobacter baumannii ATCC BAA-747
# [28] = tested on: Klebsiella pneumoniae ATCC 700603
# [29] = tested on: Salmonella enterica ATCC 6539
# [30] = tested on: Enterococcus faecium ATCC 700221
# [31] = tested on: Escherichia coli ATCC 25922
# [32] = tested on: Staphylococcus aureus 209P
# [33] = tested on: Pseudomonas aeruginosa PAO1
# Escherichia coli C600 = tested on: Escherichia coli C600
# [34] = tested on: Acinetobacter baumannii ATCC 7978
# [35] = tested on: Staphylococcus aureus ATCC 29231
# [36] = tested on: Staphylococcus aureus MW2
# [37] = tested on: Klebsiella aerogenes ATCC 13048
# [38] = tested on: Klebsiella pneumoniae WGLW2
# [39] = tested on: Escherichia coli NEB5alpha
# [40] = tested on: Bacillus subtilis ATCC 6051
structure (smiles),measurement,setting,value
C[C@H](N)C(=O)N[C@@H](CCC(N)=O)C(=O)N[C@@H](Cc1c[nH]c2ccccc12)C(=O)N[C@@H](CCCN=C(N)N)C(=O)N[C@@H](CCCN=C(N)N)C(=O)N[C@@H](Cc1c[nH]c2ccccc12)C(=O)N[C@@H](Cc1c[nH]c2ccccc12)C(=O)N[C@@H](CCC(N)=O)C(=O)N[C@@H](Cc1c[nH]c2ccccc12)C(=O)N[C@@H](CCCN=C(N)N)C(=O)N[C@@H](CCCN=C(N)N)C(N)=O [AQWRRWWQWRR],MIC,[1],50 µM
same,MIC,[2],25 µM
NCCCC[C@H](NC(=O)[C@H](CC(=O)O)NC(=O)[C@H](CC(=O)O)NC(=O)[C@H](CC(=O)O)NC(=O)[C@@H](N)CC(=O)O)C(=O)O [DDDDK],MIC,[3],≥ 90 µM
CSCC[C@H](NC(=O)[C@@H](N)CC(=O)O)C(=O)N[C@@H](CC(C)C)C(=O)N[C@H](C(=O)N[C@H](C(=O)N[C@@H](CC(=O)O)C(=O)N1CCC[C@H]1C(=O)N[C@@H](CCCCN)C(=O)O)C(C)C)C(C)C [DMLVVDPK],MIC,[4],≥ 3270 µM
same,MIC,Escherichia coli,3270 µM
same,MIC,Staphylococcus aureus,3270 µM
CC[C@H](C)[C@H](NC(=O)[C@H](CO)NC(=O)[C@H](Cc1ccccc1)NC(=O)[C@H](CC(C)C)NC(=O)[C@H](CO)NC(=O)CNC(=O)[C@H](CC(C)C)NC(=O)[C@@H](N)Cc1ccccc1)C(=O)NCC(=O)N[C@@H](CO)C(=O)N[C@@H](CCCCN)C(=O)N[C@@H](CC(C)C)C(=O)N[C@@H](CC(C)C)C(=O)N1CCC[C@H]1C(=O)NCC(=O)N[C@H](C(=O)N[C@H](C(=O)N[C@@H](CCCCN)C(=O)N[C@@H](CC(C)C)C(=O)N[C@@H](Cc1ccccc1)C(=O)N[C@@H](CCC(N)=O)C(=O)N[C@@H](CCCN=C(N)N)C(=O)N[C@@H](CCCCN)C(=O)N[C@@H](CCCCN)C(=O)N[C@@H](CCC(N)=O)C(N)=O)[C@@H](C)CC)C(C)C [FLGSLFSIGSKLLPGVIKLFQRKKQ],MIC,[5],0.9 µM
same,MIC,[6],0.707 µM
same,MIC,[7],10 µM
same,MIC,[8],3.54 µM
same,MIC,Acinetobacter baumannii,1.8 µM
CC(C)[C@@H]1NC(=O)CNC(=O)[C@H](CC(N)=O)NC(=O)[C@H](CCCN=C(N)N)NC(=O)[C@H](Cc2ccc(O)cc2)NC(=O)[C@H](C(C)C)NC(=O)[C@@H](NC(=O)[C@@H](NC(=O)[C@H](CC(N)=O)NC(=O)[C@H](Cc2c[nH]c3ccccc23)NC(=O)[C@H](C)NC(=O)[C@H](Cc2ccccc2)NC(=O)CN)C(C)C)CSSC[C@@H](C(=O)N[C@@H](Cc2cnc[nH]2)C(=O)N[C@@H](CCCN=C(N)N)C(=O)N2CCC[C@H]2C(=O)N[C@@H](C)C(=O)N[C@@H](CC(N)=O)C(N)=O)NC(=O)[C@H](C(C)C)NC(=O)[C@H](CCCN=C(N)N)NC1=O [GFAWNVCVYRNGVRVCHRPAN],MIC,[9],26.5 µM
same,MIC,[10],3.31 µM
same,MIC,[11],6.62 µM
same,MIC,[12],> 26.5 µM
same,MIC,[13],0.827 µM
same,MIC,[14],> 26.5 µM
same,MIC,[15],3.31 µM
same,MIC,[16],3.31 µM
same,MIC,[17],26.5 µM
same,MIC,[18],1.65 µM
same,MIC,[19],≥ 52.9 µM
same,MIC,[20],26.5 µM
same,MIC,[21],6.62 µM
same,MIC,[22],≥ 52.9 µM
same,MIC,[23],26.5 µM
same,MIC,Staphylococcus hyicus,26.5 µM
same,MIC,[24],13.2 µM
same,MIC,[25],3.31 µM
same,MIC,Aeromonas veronii CL0901,26.5 µM
NCC(=O)NCC(=O)N[C@@H](Cc1cnc[nH]1)C(=O)O [GGH],MIC,[26],> 476 µM
same,MIC,[27],≥ 476 µM
same,MIC,[14],> 476 µM
same,MIC,[28],> 476 µM
same,MIC,[29],≥ 476 µM
same,MIC,[30],≥ 476 µM
same,MIC,[31],> 476 µM
CC[C@H](C)[C@@H]1NC(=O)CNC(=O)[C@H](CCCN=C(N)N)NC(=O)[C@H](Cc2ccc(O)cc2)NC(=O)[C@@H]2CSSC[C@H](NC1=O)C(=O)N[C@@H](Cc1ccc(O)cc1)C(=O)N[C@@H](CCCN=C(N)N)C(=O)N[C@@H](CCCN=C(N)N)C(=O)N[C@H](C(=O)N[C@@H](CCCN=C(N)N)C(=O)O)CSSC[C@H](NC(=O)[C@H](Cc1c[nH]c3ccccc13)NC(=O)[C@@H](N)CCCCN)C(=O)N[C@@H](Cc1ccccc1)C(=O)N[C@@H](CCCN=C(N)N)C(=O)N[C@@H](CO)C(=O)N2 [KWCFRSCYRGICYRRCR],MIC,[32],6.25 µM
same,MIC,[33],12.5 µM
same,MIC,Escherichia coli C600,1.56 µM
CC[C@H](C)[C@H](NC(=O)[C@H](CCCCN)NC(=O)[C@H](Cc1c[nH]c2ccccc12)NC(=O)[C@@H](N)CC(C)C)C(=O)NCC(=O)N[C@@H](CCCCN)C(=O)N[C@@H](CCCCN)C(=O)N[C@H](C(=O)N[C@@H](Cc1c[nH]c2ccccc12)C(=O)N[C@@H](CCCN=C(N)N)C(=O)N[C@H](C(=O)NCC(=O)N[C@@H](Cc1c[nH]c2ccccc12)C(=O)N[C@@H](CC(N)=O)C(=O)N[C@@H](Cc1c[nH]c2ccccc12)C(=O)N[C@@H](CCCN=C(N)N)C(=O)O)C(C)C)[C@@H](C)CC [LWKIGKKIWRVGWNWR],MIC,[34],7.25 µM
same,MIC,[35],30.1 µM
same,MIC,[36],30.1 µM
same,MIC,[37],≥ 60.2 µM
same,MIC,[38],30.1 µM
CC(C)C[C@H](NC(=O)[C@H](C)NC(=O)[C@H](CC(=O)O)NC(=O)[C@H](CCC(=O)O)NC(=O)[C@H](CC(C)C)NC(=O)[C@H](Cc1ccccc1)NC(=O)[C@H](CC(=O)O)NC(=O)[C@@H](N)CCCN=C(N)N)C(=O)N[C@@H](CC(N)=O)C(=O)O [RDFLEDALN],MIC,[39],≥ 1000 µM
same,MIC,[40],≥ 500 µM
